# Laboratory results published in patent publication US8629283B2, “Compounds that modulate negative-sense, single-stranded RNA virus replication and uses thereof” (Icahn School of Medicine at Mount Sinai, priority 2008, dated 2014).
# Read-outs that look alike come from different tables or passages of the source. Marks after values point to notes of the source that are not given here.
# Columns and labels:
# [1] = test system: influenza B/Yamagata/88 virus; format: cell-based
# [2] = test system: influenza A/Moscow/10/99 virus; format: cell-based
# H5N1/PR8 virus = format: cell-based, influenza A virus
# [3] = test system: influenza A/Wyoming/03/2003 virus; format: cell-based
# influenza A/WSN/33 virus [4] = test system: influenza A/WSN/33 virus
# influenza A/WSN/33 virus [5] = format: cell-based
# caspase-3 = settings: human, 6 h
# influenza A virus (FluA) [6] = assay: in vitro; settings: human
# influenza virus = format: cell-based
# [7] = test system: host cell replication machinery
# influenza A virus (FluA) [8] = assay: microbe, parasite or virus in culture
# in vitro [9] = settings: human
# in vitro [10] = settings: dog
# influenza A virus (FluA) [11] = test system: influenza A virus (FluA)
# A549 cells = settings: human
# in vitro [12] = settings: mouse
# [13] = molecular target: influenza viral RNA polymerase (Influenza A virus, UniProt P03427+P03430+P15659); format: cell-based
# in vitro [14] = settings: human; remark: listed apart in the source
# [15] = test system: Newcastle disease virus (NDV/B1); format: cell-based
# [16] = test system: vesicular stomatitis virus (VSV); format: cell-based
# influenza virus WSN = format: cell-based, influenza A virus
# retrovirus MLV = format: cell-based
# VSV = format: cell-based, vesicular stomatitis virus
Structure (SMILES),increase of viral titer compared to untreated control (influenza A/WSN/33 virus [4]),inhibition of FluB (A549) [1],selectivity ratio (influenza A virus (FluA) [6]),effect on entry of influenza virus (influenza virus),"IC50 (influenza A virus (FluA) [8]; A549, read-out: IC50 (A549)) [nM]","IC50 (influenza A virus (FluA) [8]; MDCK, read-out: IC50 (MDCK)) [nM]","IC50 (influenza A virus (FluA) [8]; MEF, read-out: IC50 (MEF)) [nM]",IC50 (influenza A virus (FluA) [8]; read-out: IC50 (HTBE)) [nM],IC50 (influenza A virus (FluA) [8]; read-out: IC50 in HTBE cells) [nM],CC50 (in vitro [10]) [nM],Inhibition of FluA (Table 5) (influenza A virus (FluA) [11]) [%*],inhibition of FluA (A549) (influenza A virus (FluA) [11]) [%],inhibition of FluA (HTBE) (influenza A virus (FluA) [11]) [%],inhibition of FluA (MDCK) (influenza A virus (FluA) [11]) [%],inhibition of FluA (MEF) (influenza A virus (FluA) [11]) [%],SI (MDCK) (influenza A virus (FluA) [11]),"CC10 (A549), concentration of 10% cytotoxicity (A549 cells) [nM]",CC50 (in vitro [12]) [nM],inhibition of influenza virus replication (influenza A virus (FluA) [11]),other results
"NC(=NC(=O)c1nc(Cl)c(N)nc1N)NCc1ccc(Cl)cc1Cl [2′,4′-dichlorobenzamil]",10^3 fold,–,–,–,–,–,–,–,–,–,–,–,–,–,–,–,–,–,–,increase of viral titer compared to untreated cells [1]: 4 fold; maximum viral titer compared to untreated cells [2]: significant increase; increase of viral titer compared to untreated cells (H5N1/PR8 virus): ~20 fold; maximum viral titer compared to untreated cells [3]: significant increase; increase in viral titers in Vero cells (influenza A/WSN/33 virus [4]): 11 fold; influenza virus growth versus untreated control (influenza A/WSN/33 virus [4]): boost influenza virus replication
NC(=Nc1ccccc1)NC(=O)c1nc(Cl)c(N)nc1N [phenamil],16 fold,–,–,–,–,–,–,–,–,–,–,–,–,–,–,–,–,–,–,"HTS result (luciferase signal of influenza mini-genome reporter) (influenza A/WSN/33 virus [5]): increased luciferase signals; induction of apoptosis (caspase-3 activity, fluorescence vs untreated cells) (caspase-3): 1.3 fold"
"Cc1[nH]c2ccc(-c3nnc(SCC(=O)N4CCCC4)o3)cc2c1C [A3, 2-(5-(2,3-dimethyl-1H-indol-5-yl)-1,3,4-oxadiazol-2-ylthio)-1-(pyrrolidin-1-yl)ethanone]",–,94% (A549)*,496,did not inhibit viral entry,540,820,3600,42,42,> 100000,99.2,97,99.99,~99.6,~91.2,>122,38000,> 100000,–,inhibition of growth of influenza B virus [1]: about 1.5 logs; effect on overall host cell replication machinery (renilla luciferase control plasmid) [7]: not affected; CC50 at 24 h (in vitro [9]): 268000 nM; inhibition of viral RNA polymerase activity [13]: up to 99%; CC50 (in vitro [14]): 108000 nM
"CN(c1nc(-c2ccc(Br)cc2)cs1)C1CCS(=O)(=O)C1 (stereo not drawn) [A35, 4-(4-bromophenyl)-N-methyl-N-(tetrahydro-1,1-dioxido-3-thienyl)-2-thiazolamine]",–,63% (A549)*,53,did not affect the entry step,2100,3910,2640,1980,–,26800,99.99,99.988,99.98,~75,~99.6,7,11200,96600,up to 4 logs,"inhibition of influenza B virus [1]: less significant inhibition; IC50 (influenza A virus (FluA) [8]; HEK-293T, read-out: IC50 (293T)): 6200 nM; IC50 (influenza A virus (FluA) [8]; Huh7.5, read-out: IC50 (HUH7.5)): 3970 nM; IC50 (influenza A virus (FluA) [8]; read-out: IC50 (Detroit)): 2070 nM; inhibition of NDV [15]: less significant inhibition; inhibition of FluA (293T) (influenza A virus (FluA) [11]): ~50%; inhibition of FluA (Detroit) (influenza A virus (FluA) [11]): ~95.6%; inhibition of FluA (HUH7.5) (influenza A virus (FluA) [11]): ~98.4%; inhibition of VSV [16]: less significant inhibition; inhibition of viral replication (influenza virus WSN): 4 logs"
"COc1cc2c(O)c3c(c(-c4ccc5c(c4)OCO5)c2cc1OC)C(=O)OC3 [C2, 9-(benzo[d][1,3]dioxol-5-yl)-4-hydroxy-6,7-dimethoxynaphtho[2,3-c]furan-1(3H)-one]",–,63% (A549)*,82,inhibited,1600,150,340,59,59,670,–,94.7,99.96,~87.5,~96,4,–,4850,up to 3.5 logs,effect on entry of MLV (retrovirus MLV): unaffected; effect on entry of VSV (VSV): inhibited; effect on course of infection (influenza virus WSN): did not affect the course of infection
